Results from ChEMBL document CHEMBL1150788, “In vitro susceptibility of Sporothrix schenckii to six antifungal agents determined using three different methods” (2007).
Values after ≈ are worked out from the molar mass of the structure shown.

What was measured:
Type in all cases: functional
Sporothrix schenckii [1] = experiment: Antifungal activity against Sporothrix schenckii PSSA81 isolate from cutaneous-lymphatic sporotrichosis patient after 72 hrs by ATB Fungus 2 method
Sporothrix schenckii [2] = experiment: Antifungal activity against Sporothrix schenckii P25013 isolate from cutaneous-lymphatic sporotrichosis patient after 72 hrs by modified NCCLS M38-A method
Sporothrix schenckii [3] = experiment: Antifungal activity against Sporothrix schenckii P20825 isolate from cutaneous-lymphatic sporotrichosis patient after 72 hrs by modified NCCLS M38-A method
Sporothrix schenckii [4] = experiment: Antifungal activity against Sporothrix schenckii P14954 isolate from cutaneous-lymphatic sporotrichosis patient after 72 hrs by Sensititre YeastOne method
Sporothrix schenckii [5] = experiment: Antifungal activity against Sporothrix schenckii MRSS4 isolate from cutaneous-lymphatic sporotrichosis patient after 72 hrs by modified NCCLS M38-A method
Sporothrix schenckii [6] = experiment: Antifungal activity against Sporothrix schenckii P24255 isolate from cutaneous-lymphatic sporotrichosis patient after 72 hrs by modified NCCLS M38-A method
Sporothrix schenckii [7] = experiment: Antifungal activity against Sporothrix schenckii P24255 isolate from cutaneous-lymphatic sporotrichosis patient after 72 hrs by ATB Fungus 2 method
Sporothrix schenckii [8] = experiment: Antifungal activity against Sporothrix schenckii P10012 isolate from cutaneous-lymphatic sporotrichosis patient after 72 hrs by modified NCCLS M38-A method
Sporothrix schenckii [9] = experiment: Antifungal activity against Sporothrix schenckii P1621 isolate from cutaneous-lymphatic sporotrichosis patient after 72 hrs by Sensititre YeastOne method
Sporothrix schenckii [10] = experiment: Antifungal activity against Sporothrix schenckii SSA29 isolate from cutaneous-lymphatic sporotrichosis patient after 72 hrs by ATB Fungus 2 method
Sporothrix schenckii [11] = experiment: Antifungal activity against Sporothrix schenckii PGAC0016 isolate from cutaneous-lymphatic sporotrichosis patient after 72 hrs by modified NCCLS M38-A method
Sporothrix schenckii [12] = experiment: Antifungal activity against Sporothrix schenckii PJRC002 isolate from cutaneous-lymphatic sporotrichosis patient after 72 hrs by Sensititre YeastOne method
Sporothrix schenckii [13] = experiment: Antifungal activity against Sporothrix schenckii P14036 isolate from cutaneous-lymphatic sporotrichosis patient after 72 hrs by modified NCCLS M38-A method
Sporothrix schenckii [14] = experiment: Antifungal activity against Sporothrix schenckii P30915 isolate from cutaneous-lymphatic sporotrichosis patient after 72 hrs by modified NCCLS M38-A method
Sporothrix schenckii [15] = experiment: Antifungal activity against Sporothrix schenckii P30915 isolate from cutaneous-lymphatic sporotrichosis patient after 72 hrs by ATB Fungus 2 method
Sporothrix schenckii [16] = experiment: Antifungal activity against Sporothrix schenckii P3287 isolate from cutaneous-lymphatic sporotrichosis patient after 72 hrs by modified NCCLS M38-A method
Candida parapsilosis [17] = experiment: Antifungal activity against Candida parapsilosis ATCC 22019 […] after 72 hrs by modified NCCLS M38-A method; conditions: Lodderomyces parapsilosis, ATCC 22019, 72 h
Aspergillus flavus [18] = experiment: Antifungal activity against Aspergillus flavus ATCC 204304 […] after 72 hrs by modified NCCLS M38-A method; conditions: ATCC 204304, 72 h
Aspergillus flavus [19] = experiment: Antifungal activity against Aspergillus flavus ATCC 204304 […] after 72 hrs by Sensititre YeastOne method; conditions: ATCC 204304, 72 h
Aspergillus flavus [20] = experiment: Antifungal activity against Aspergillus flavus ATCC 204304 […] after 72 hrs by ATB Fungus 2 method; conditions: ATCC 204304, 72 h
Sporothrix schenckii [21] = experiment: Antifungal activity against Sporothrix schenckii isolate from cutaneous-lymphatic sporotrichosis patient after 72 hrs by Sensititre YeastOne method
Pichia kudriavzevii = experiment: Antifungal activity against Candida krusei ATCC 6258 […] after 72 hrs by modified NCCLS M38-A method; conditions: ATCC 6258, 72 h
Candida parapsilosis [22] = experiment: Antifungal activity against Candida parapsilosis ATCC 22019 […] after 72 hrs by Sensititre YeastOne method; conditions: Lodderomyces parapsilosis, ATCC 22019, 72 h

SMILES	MIC (Sporothrix schenckii [1]) [µg/mL]	MIC (Sporothrix schenckii [2]) [µg/mL]	MIC (Sporothrix schenckii [3]) [µg/mL]	MIC (Sporothrix schenckii [4]) [µg/mL]	MIC (Sporothrix schenckii [5]) [µg/mL]	MIC (Sporothrix schenckii [6]) [µg/mL]	MIC (Sporothrix schenckii [7]) [µg/mL]	MIC (Sporothrix schenckii [8]) [µg/mL]	MIC (Sporothrix schenckii [9]) [µg/mL]	MIC (Sporothrix schenckii [10]) [µg/mL]	MIC (Sporothrix schenckii [11]) [µg/mL]	MIC (Sporothrix schenckii [12]) [µg/mL]	MIC (Sporothrix schenckii [13]) [µg/mL]	MIC (Sporothrix schenckii [14]) [µg/mL]	MIC (Sporothrix schenckii [15]) [µg/mL]	MIC (Sporothrix schenckii [16]) [µg/mL]	MIC (Candida parapsilosis [17]) [µg/mL]	MIC (Aspergillus flavus [18]) [µg/mL]	MIC50 (Sporothrix schenckii [21]) [µg/mL]	MIC90 (Sporothrix schenckii [21]) [µg/mL]	also measured
C[C@@H]1[C@H](O)[C@@H](C)/C=C/C=C/C=C/C=C/C=C/C=C/C=C/[C@H](O[C@@H]2O[C@H](C)[C@@H](O)[C@H](N)[C@@H]2O)C[C@@H]2O[C@](O)(C[C@@H](O)C[C@@H](O)[C@H](O)CC[C@@H](O)C[C@@H](O)CC(=O)O[C@H]1C)C[C@H](O)[C@H]2C(=O)O [AMPHOTERICIN B]	4 (≈ 4.33 µM)	> 16	> 16	1 (≈ 1.08 µM)	0.06 (≈ 0.0649 µM)	2 (≈ 2.16 µM)	2 (≈ 2.16 µM)	0.06 (≈ 0.0649 µM)	0.5 (≈ 0.541 µM)	2 (≈ 2.16 µM)	0.25 (≈ 0.271 µM)	1 (≈ 1.08 µM)	> 16	0.25 (≈ 0.271 µM)	≤ 0.5	> 16	0.5 (≈ 0.541 µM)	4 (≈ 4.33 µM)	0.5 (≈ 0.541 µM)	1 (≈ 1.08 µM)	MIC (Aspergillus flavus [19]): 0.5 µg/mL (≈ 0.541 µM); MIC (Aspergillus flavus [20]): > 16 µg/mL
OC(Cn1cncn1)(Cn1cncn1)c1ccc(F)cc1F [FLUCONAZOLE]	> 128	> 64	> 64	> 256	> 64	> 64	128 (≈ 418 µM)	> 64	> 256	> 128	> 64	> 256	> 128	> 64	> 128	> 64	1 (≈ 3.27 µM)		> 256	> 256	MIC (Pichia kudriavzevii): 128 µg/mL (≈ 418 µM)
CCC(C)n1ncn(-c2ccc(N3CCN(c4ccc(OCC5COC(Cn6cncn6)(c6ccc(Cl)cc6Cl)O5)cc4)CC3)cc2)c1=O (stereo unspecified) [ITRACONAZOLE]	1 (≈ 1.42 µM)	0.5 (≈ 0.709 µM)	0.5 (≈ 0.709 µM)	0.25 (≈ 0.354 µM)	0.5 (≈ 0.709 µM)	0.5 (≈ 0.709 µM)	1 (≈ 1.42 µM)	0.5 (≈ 0.709 µM)	0.25 (≈ 0.354 µM)	0.5 (≈ 0.709 µM)	0.5 (≈ 0.709 µM)	0.13 (≈ 0.184 µM)	0.5 (≈ 0.709 µM)	0.5 (≈ 0.709 µM)	2 (≈ 2.83 µM)	0.25 (≈ 0.354 µM)	0.5 (≈ 0.709 µM)	0.5 (≈ 0.709 µM)	0.25 (≈ 0.354 µM)	0.25 (≈ 0.354 µM)	MIC (Pichia kudriavzevii): 1 µg/mL (≈ 1.42 µM); MIC (Candida parapsilosis [22]): 0.25 µg/mL (≈ 0.354 µM); MIC (Aspergillus flavus [19]): 0.25 µg/mL (≈ 0.354 µM); MIC (Aspergillus flavus [20]): 0.25 µg/mL (≈ 0.354 µM)
